Experiments:
mastocytome = assay: Activation of macrophages in vitro (cytotoxicity with respect to the mastocytome); type: cell-based; conditions: incubated directly with normal macrophages and with macrophages from an inflammatory peritoneal exsudate (both cases)
Protocol: The activity of the muramyl-dipeptide was measured by directly incubating it with both normal macrophages and macrophages originating from an inflammatory peritoneal exsudate.

[1] = system: Female Hartley guinea-pigs; assay: Delayed hypersensitivity to ovalbumin (cutaneous reaction); type: in vivo, guinea-pig; conditions: Table 2, adjuvant dose 25 μg
Protocol: The delayed hypersensitivity to ovalbumin was measured by cutaneous reaction four weeks after injection; it is expressed by the diameter in millimeters of the erythema (E), of the induration (I) or the necrosis (N), forty-eight hours after sub-cutaneous injection of 10 or 100 μg of ovalbumin.

[2] = system: Female Hartley guinea-pigs; assay: Adjuvant activity: rates of antibodies with respect to ovalbumin after injection with incomplete Freund adjuvant and ovalbumin; type: in vivo, guinea-pig; conditions: Table 2; dose 25 μg/animal
Protocol: Female Hartley guinea-pigs of 300-350 g received, in the plantar pad of each of the two rear paws, an emulsion composed of equal parts of incomplete Freund adjuvant and a physiological solution containing ovalbumin (5 mg/guinea-pig) and the preparation to be tested. The incomplete Freund adjuvant (FIA) (that is to say not containing mycobacteria), is the complete adjuvant (FCA) marketed by the DIFCO company were used as controls.
The rates of antibodies with respect to ovalbumin were determined three weeks after injection. The antibody rate is expressed in μg/ml of serum of the antigen-antibody precipitate at the point of equivalents.

surrenalectomized mice = assay: Toxicity in surrenalectomized mice; type: in vivo; conditions: 30 μg dosage
guinea pigs = assay: Delayed hypersensitivity with respect to the substances in guinea pigs treated with Freund's complete adjuvant; type: in vivo, guinea pig; conditions: 5 and 10 μg in the dermis of guinea pigs, three weeks after ovalbumine with FIA or FCA
Protocol: Three groups of guinea pigs were injected (in their foot pads) with 1 mg of ovalbumine together with:
(a) Freund's incomplete adjuvant (FIA) and
(b) Freund's complete adjuvent (FCA) respectively.
The delayed hypersensitivity was measured by subcutaneous reaction three weeks thereafter, by injecting 5 mg of ovalbumine and of 5 and 10 μg of either the substance BB and the muramyl-dipeptide in the dermis of the animals.

[3] = system: tumor cells (mastocytome); assay: Antitumor effect of peritoneal macrophages activated in vivo; type: cell-based; conditions: macrophages of mice injected intraperitoneally with 30 μg, recovered 4 days later, incubated with tumor cells
Protocol: The following test takes advantage of the finding made by several authors that macrophages become cytotoxic with respect to neoplasic cells, when they have previously been activated by immuno-adjuvant substances.
Two groups of three mice were injected intraperitoneally with 30 μg of each of the substances respectively. The mice were sacrificed 4 days later. There macrophages were recovered according to the technique of D. Juy, C. Bona and L. Chedid, C. R. Acad. Sc. Paris, 1974, 268, Serie D, 1859 and incubated in the presence of tumor cells (mastocytome).
The inhibition of the mastocytome increase was measured by reference to the reduced incorporation of radioactive thymidine as compared to that of controls.

CC(=O)N[C@@H]1[C@@H](O[C@H](C)C(=O)N[C@@H](C)C(=O)N[C@H](CCC(=O)O)C(N)=O)[C@H](O)[C@@H](CO)O[C@H]1O [N-acetylmuramyl-L-Ala-D-Glu-NH2, 2-(2-acetamido-2-desoxy-3-O-D-glucopyranosyl)-D-propionyl-L-Ala-(γ-OH)-D-α-Glu NH2]
Increase in vitro of the cytotoxicity of the macrophages with respect to the mastocytome (mastocytome): capable of increasing in vitro the cytotoxicity of the macrophages
Delayed Hypersensitivity, erythema (E) ([1]; 10 μg ovalbumin injection): 9 millimeters
Delayed Hypersensitivity, erythema (E) ([1]; 100 μg ovalbumin injection): 17 millimeters
Antibody/antiovalbumin, Average [2]: 5210 µg/mL
Antibody/antiovalbumin, animal 1 [2]: 5280 µg/mL
Antibody/antiovalbumin, animal 2 [2]: 6000 µg/mL
Antibody/antiovalbumin, animal 3 [2]: 2960 µg/mL
Antibody/antiovalbumin, animal 4 [2]: 6880 µg/mL
Antibody/antiovalbumin, animal 5 [2]: 4960 µg/mL
Toxicity (surrenalectomized mice): no detectable toxicity
Delayed hypersensitivity reaction to the substance (guinea pigs): dit not induce any detectable reaction
Inhibition of the mastocytome increase (reduced incorporation of radioactive thymidine compared to controls) [3]: 84%
